For one assay, the target named is T1, renin in human plasma (Homo sapiens, UniProt P00797).
T1 construct: host or cells: recombinant renin of unstated origin added to human plasma from 10 normal donors
T1 sequence (P00797 67-406): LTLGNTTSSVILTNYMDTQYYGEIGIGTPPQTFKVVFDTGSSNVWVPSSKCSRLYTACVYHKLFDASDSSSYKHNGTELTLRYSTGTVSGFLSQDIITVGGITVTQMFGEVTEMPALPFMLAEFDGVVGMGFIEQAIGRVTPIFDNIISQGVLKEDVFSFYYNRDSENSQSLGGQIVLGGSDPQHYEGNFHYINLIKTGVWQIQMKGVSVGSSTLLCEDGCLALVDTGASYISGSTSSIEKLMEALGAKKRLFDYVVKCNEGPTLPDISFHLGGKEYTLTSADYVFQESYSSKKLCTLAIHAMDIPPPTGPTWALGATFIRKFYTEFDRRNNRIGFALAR
As to the kind of experiment: Inhibition of renin in human plasma (enzymatic in vitro assay, Ang I EIA). Type of assay: biochemical. Conditions: human plasma from 10 normal donors, 37° C. 2 h. The method, then:
Inhibition of Renin in Human Plasma
The enzymatic in vitro assay was performed in 384-well polypropylene plates (Nunc). The assay buffer consisted of PBS (Gibco BRL) including 1 mM EDTA and 0.1% BSA. The reaction mixture was composed of 80 μL, per well of human plasma, enzyme, Ang I-antibodiesmix and 5 μL of renin inhibitors in DMSO. The human plasma mix was premixed at 4° C. and consists of […]
human plasma from 10 normal donors human recombinant renin (3 μM)
The mixtures were then incubated at 37° C. for 2 h.
To determine the enzymatic activity and its inhibition, the accumulated Ang I was detected by an enzyme immunoassay (EIA) in 384-well plates (Nunc). 10 μL of the reaction mixture or standards were transferred to immuno plates which were previously coated with a covalent complex of Ang I and bovine serum albumin (Ang I-BSA). 70 μL assay buffer were added and the plates were incubated at 4° C. overnight.

A further assay concerns the target T2, human recombinant renin (Homo sapiens, UniProt P00797).
T2 sequence (P00797 67-406): T1 sequence (P00797 67-406)
The assay can be described thus: Inhibition of human recombinant renin (enzymatic in vitro assay, Ang I EIA). Type of assay: biochemical. Conditions: human recombinant renin 40 pM, buffer, 37° C. 3 h. The method, then:
Inhibition of Human Recombinant Renin
The enzymatic in vitro assay was performed in 384-well polypropylene plates (Nunc). The assay buffer consisted of PBS (Gibco BRL) including 1 mM EDTA and 0.1% BSA. The reaction mixture were composed of 47.5 μL per well of an enzyme mix and 2.5 μL of renin inhibitors in DMSO. The enzyme mix was premixed at 4° C. and consists of the following components: […]
human recombinant renin (40 pM) synthetic human angiotensin(1-14) (0.5 μM) hydroxyquinoline sulfate (1 mM)
The mixtures were then incubated at 37° C. for 3 h. The enzyme reaction was stopped by placing the reaction plate on wet ice.
To determine the enzymatic activity and its inhibition, the accumulated Ang I was detected by an enzyme immunoassay (EIA) in 384-well plates (Nunc). 5 μL of the reaction mixture or standards were transferred to immuno plates which were previously coated with a covalent complex of Ang I and bovine serum albumin (Ang I-BSA). 75 μL of Ang I-antibodies in assay buffer above including 0.01% Tween 20 were added and the plates were incubated at 4° C. overnight.
An alternative protocol could be used by stopping the enzymatic reaction with 0.02N final concentration of HCl. 5 μL of the reaction mixture or standards were transferred to immuno plates and 75 μL of Ang I-antibodies in assay buffer above including 0.01% Tween 20 were added and the plates were incubate at RT for 4 h.

`COCCCc1ccccc1-c1ccc(C(CN)Cc2ccc(OCCOc3c(Cl)cc(C)cc3Cl)cc2)c(C)c1` (stereo not drawn) [Example 3, 3-{4-[2-(2,6-dichloro-4-methylphenoxy)ethoxy]phenyl}-2-[2′-(3-methoxypropyl)-3-methylbiphenyl-4-yl]propan-1-amine]: the figures for the IC50 against renin in human plasma and on human recombinant renin were 116 nM and 0.4 nM, respectively. For `COCCCc1ccccc1-c1ccc(C(CN)Cc2cc(F)cc(F)c2)c(C)c1` (stereo not drawn) [Example 32, 3-(3,5-difluorophenyl)-2-[2′-(3-methoxypropyl)-3-methylbiphenyl-4-yl]propan-1-amine] the same measures were more than 10000 nM and 285 nM.

With `COCCCc1c(-c2ccc(C(CN)Cc3ccc(OCCOc4c(Cl)cc(C)cc4Cl)cc3)c(C)c2)ccc[n+]1[O-]` (stereo not drawn) [Example 21, 3-{-4-[2-(2,6-dichloro-4-methylphenoxy)ethoxy]phenyl}-2-{4-[2-(3-methoxypropyl)-1-oxidopyridin-3-yl]-2-methylphenyl}propan-1-amine], the IC50 at renin in human plasma stood at 103 nM; on human recombinant renin, 4.3 nM.

For `Cc1cc(Cl)c(OCCOc2ccc(CC(CN)c3ccc(-c4ccccc4Cl)cc3F)cc2)c(Cl)c1` (stereo not drawn) [Example 7, 2-(2′-chloro-3-fluorobiphenyl-4-yl)-3-{4-[2-(2,6-dichloro-4-methylphenoxy)ethoxy]phenyl}propan-1-amine], the IC50 on renin in human plasma came to 1150 nM; on human recombinant renin, 7 nM.

In the case of `COCCCc1ncccc1-c1ccc(C(CN)Cc2ccc(OCCOc3c(Cl)cc(C)cc3Cl)cc2)c(C)c1` (stereo not drawn) [Example 16, 3-{4-[2-(2,6-dichloro-4-methylphenoxy)ethoxy]phenyl}-2-{4-[2-(3-methoxypropyl)pyridin-3-yl]-2-methylphenyl}propan-1-amine], the half-inhibitory concentration (IC50) came to 94.6 nM at renin in human plasma and 1.1 nM at human recombinant renin. In the case of `COc1cc(-c2ccccc2Cl)ccc1C(CN)Cc1ccc(OCCOc2c(Cl)cc(C)cc2Cl)cc1` (stereo not drawn) [Example 8, 2-(2′-chloro-3-methoxybiphenyl-4-yl)-3-{4-[2-(2,6-dichloro-4-methylphenoxy)ethoxy]phenyl}propan-1-amine], the IC50 on renin in human plasma turned out to be 3620 nM; on human recombinant renin, 47.6 nM. For `COCCCOc1ccccc1-c1ccc(C(CN)Cc2ccc(OCCOc3c(Cl)cc(C)cc3Cl)cc2)c(C)c1` (stereo not drawn) [Example 5, 3-{4-[2-(2,6-dichloro-4-methylphenoxy)ethoxy]phenyl}-2-[2′-(3-methoxypropoxy)-3-methylbiphenyl-4-yl]propan-1-amine] the same measures were 1160 nM and 1.7 nM. For the compound `Cc1cc(Cl)c(OCCOc2ccc(CC(CN)c3ccc(-c4ccccc4CCC(=O)N(C)C)cc3C)cc2)c(Cl)c1` (stereo not drawn) [Example 24, 3-[4′-(2-amino-1-{4-[2-(2,6-dichloro-4-methylphenoxy)ethoxy]benzyl}ethyl)-3′-methylbiphenyl-2-yl]-N—N-dimethylpropanamide], the IC50 was more than 1110 nM on renin in human plasma and 30.8 nM at human recombinant renin. The matching figures for `Cc1cc(Cl)c(OCCOc2ccc(CC(CN)c3ccc(-c4ccccc4Cl)cc3C)cc2)c(Cl)c1` (stereo not drawn) [Example 1, 2-(2′-Chloro-3-methyl-biphenyl-4-yl)-3-{4-[2-(2,6-dichloro-4-methyl-phenoxy)-ethoxy]-phenyl}-propylamine]: 796 nM and 6 nM.

Regarding `COCCOc1ccccc1-c1ccc(C(CN)Cc2ccc(OCCOc3c(Cl)cc(C)cc3Cl)cc2)c(C)c1` (stereo not drawn) [Example 4, 3-{4-[2-(2,6-dichloro-4-methylphenoxy)ethoxy]phenyl}-2-[2′-(2-methoxyethoxy)-3-methylbiphenyl-4-yl]propan-1-amine], the 50% inhibitory concentration (IC50) against renin in human plasma was 1500 nM; on human recombinant renin, 7.4 nM.

As for `COCCCc1ccccc1-c1cc(C(F)(F)F)c(C(CN)Cc2ccc(OCCOc3c(Cl)cc(C)cc3Cl)cc2)cn1` (stereo not drawn) [Example 11, 3-{4-[2-(2,6-dichloro-4-methylphenoxy)ethoxy]phenyl}-2-[6-[2-(3-methoxypropyl)phenyl]-4-(trifluoromethyl)pyridin-3-yl]propan-1-amine], the 50% inhibitory concentration (IC50) was 21 nM on renin in human plasma and 0.3 nM at human recombinant renin. The matching figures for `Cc1cc(Cl)c(OCCOc2ccc(CC(CN)c3ccc(-c4ccccc4CCC#N)cc3C)cc2)c(Cl)c1` (stereo not drawn) [Example 14, 3-[4′-(2-amino-1-{4-[2-(2,6-dichloro-4-methylphenoxy)ethoxy]benzyl}ethyl)-3′-methylbiphenyl-2-yl]propanenitrile]: 544 nM and 10.6 nM. For `COCCc1ccccc1-c1ccc(C(CN)Cc2ccc(OCCOc3c(Cl)cc(C)cc3Cl)cc2)c(C)c1` (stereo not drawn) [Example 2, 3-{4-[2-(2,6-dichloro-4-methylphenoxy)ethoxy]phenyl}-2-[2′-(2-methoxyethyl)-3-methylbiphenyl-4-yl]propan-1-amine] the same measures were 1920 nM and 19.7 nM. For `Cc1cc(Cl)c(OCCOc2ccc(CC(CN)c3ccc(-c4c(Cl)cccc4Cl)cc3C)cc2)c(Cl)c1` (stereo not drawn) [Example 39] the same measures were 2320 nM and 16.3 nM.

As to `COCCCc1ccccc1-c1ccc(C(CN)Cc2ccc(OCCOc3c(Cl)cc(C)cc3Cl)cc2)c(C(F)(F)F)c1` (stereo not drawn) [Example 13, 3-{4-[2-(2,6-dichloro-4-methylphenoxy)ethoxy]phenyl}-2-[2′-(3-methoxypropyl)-3-(trifluoromethyl)biphenyl-4-yl]propan-1-amine], the IC50 is 156 nM on renin in human plasma and 0.9 nM on human recombinant renin. For `COCCCc1cccc(C)c1-c1ccc(C(CN)Cc2ccc(OCCOc3c(Cl)cc(C)cc3Cl)cc2)c(C)c1` (stereo not drawn) [Example 12, 3-{4-[2-(2,6-dichloro-4-methylphenoxy)ethoxy]phenyl}-2-[2′-(3-methoxypropyl)-3,6′-dimethylbiphenyl-4-yl]propan-1-amine] the same measures were 643 nM and 0.2 nM. For `Cc1cc(Cl)c(OCCOc2ccc(CC(CN)c3ccc(-c4ccccc4Cl)cc3Cl)cc2)c(Cl)c1` (stereo not drawn) [Example 10, 2-(2′,3-dichlorobiphenyl-4-yl)-3-{4-[2-(2,6-dichloro-4-methylphenoxy)ethoxy]phenyl}propan-1-amine] the same measures were 764 nM and 0.5 nM. As for `CC(=O)NCCc1ccccc1-c1ccc(C(CN)Cc2ccc(OCCOc3c(Cl)cc(C)cc3Cl)cc2)c(C)c1` (stereo not drawn) [Example 30, 2-{2′-[2-(acetylamino)ethyl]-3-methylbiphenyl-4-yl}-3-{4-[2-(2,6-dichloro-4-methylphenoxy)ethoxy]phenyl}propan-1-aminium chloride], at renin in human plasma, half-maximal inhibition (IC50) required 9.6 nM.

For `Cc1cc(Cl)c(OCCOc2ccc(CC(CN)c3ccc(-c4ccccc4Cl)cc3)cc2)c(Cl)c1` (stereo not drawn) [Example 6, 2-(2′-chlorobiphenyl-4-yl)-3-{4-[2-(2,6-dichloro-4-methylphenoxy)ethoxy]phenyl}propan-1-amine], the half-maximal inhibitory concentration (IC50) on human recombinant renin worked out at 44.4 nM.

In general, IC50 refers to the midpoint of a concentration-inhibition curve.

The values are drawn from patent US8334308B2, “Renin inhibitors” (Merck Sharp & Dohme Corp., priority 2007, dated 2012).
